Reference: ChEMBL document CHEMBL1127522, “[L-Ala3]DPDPE: a new enkephalin analog with a unique opioid receptor activity profile. Further evidence of delta-opioid receptor multiplicity” (J Med Chem, 1994)
pIC50: −log10 of the molar value. Bridge positions count the residues as written; N and C are the ends. Square brackets hold non-standard residues; d marks the D form. Peptide text beside a SMILES is read from it. dPen = CC(C)(S)[C@@H](N)C(=O)O; dAbu = CC[C@@H](N)C(=O)O

Key:
Mu-type opioid receptor = Mu-type opioid receptor (Rattus norvegicus, UniProt P33535); experiment: Evaluation for the binding affinity by competitive inhibition of [3H]- CTOP binding
[1] = biological target: Delta-type opioid receptor (Rattus norvegicus, UniProt P33533); experiment: Evaluation for the binding affinity by competitive inhibition of [3H]- p-chloro DPDPE binding
[2] = biological target: Delta-type opioid receptor (Mus musculus, UniProt P32300); experiment: Inhibitory activity of the electrically induced smooth muscle contraction of mouse vas deferens; format: functional, tissue-based
Delta-type opioid receptor (Mus musculus, UniProt P32300), sequence (P32300 whole entry): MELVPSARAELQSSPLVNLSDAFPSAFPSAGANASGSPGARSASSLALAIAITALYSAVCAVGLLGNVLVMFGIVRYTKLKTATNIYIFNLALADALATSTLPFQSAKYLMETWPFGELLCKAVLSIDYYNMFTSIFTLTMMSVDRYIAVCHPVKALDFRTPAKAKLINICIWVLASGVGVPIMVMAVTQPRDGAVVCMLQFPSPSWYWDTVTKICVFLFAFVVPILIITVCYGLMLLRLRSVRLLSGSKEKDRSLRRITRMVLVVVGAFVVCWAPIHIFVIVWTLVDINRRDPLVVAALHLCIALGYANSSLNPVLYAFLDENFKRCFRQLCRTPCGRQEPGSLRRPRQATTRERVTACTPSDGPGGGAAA

Mu-type opioid receptor, sequence (P33535 whole entry): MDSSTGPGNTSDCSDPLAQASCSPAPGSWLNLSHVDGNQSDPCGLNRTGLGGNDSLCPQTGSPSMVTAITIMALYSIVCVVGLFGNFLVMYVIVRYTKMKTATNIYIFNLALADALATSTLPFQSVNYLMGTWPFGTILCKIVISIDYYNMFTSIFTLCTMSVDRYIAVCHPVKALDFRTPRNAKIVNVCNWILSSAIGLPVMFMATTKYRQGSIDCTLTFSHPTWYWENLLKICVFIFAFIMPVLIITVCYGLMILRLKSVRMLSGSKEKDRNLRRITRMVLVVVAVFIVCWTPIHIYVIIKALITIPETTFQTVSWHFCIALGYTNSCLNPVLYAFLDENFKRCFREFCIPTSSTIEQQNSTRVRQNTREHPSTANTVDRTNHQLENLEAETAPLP
Delta-type opioid receptor (Rattus norvegicus, UniProt P33533), sequence (P33533 whole entry): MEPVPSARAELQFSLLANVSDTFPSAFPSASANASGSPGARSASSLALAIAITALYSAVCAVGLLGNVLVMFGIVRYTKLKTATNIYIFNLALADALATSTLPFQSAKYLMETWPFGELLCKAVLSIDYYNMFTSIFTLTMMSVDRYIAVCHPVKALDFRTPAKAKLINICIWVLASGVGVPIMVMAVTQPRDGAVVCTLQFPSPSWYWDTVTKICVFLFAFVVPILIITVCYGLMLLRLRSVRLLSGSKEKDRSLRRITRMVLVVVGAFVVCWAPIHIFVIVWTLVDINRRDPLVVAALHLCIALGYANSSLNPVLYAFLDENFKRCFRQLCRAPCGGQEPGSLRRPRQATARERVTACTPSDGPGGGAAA

**Q.** CC1(C)SSC(C)(C)[C@@H](NC(=O)[C@@H](N)Cc2ccc(O)cc2)C(=O)N[C@@H](CO)C(=O)N[C@@H](Cc2ccccc2)C(=O)N[C@H]1C(=O)O (H-Y[dPen]SF[dPen]-OH; disulfide 2-5) was tested. Which pIC50 (Mu-type opioid receptor) did it give?
**A.** < 4.65

**Q.** CC[C@H]1NC(=O)[C@H](NC(=O)[C@@H](N)Cc2ccc(O)cc2)C(C)(C)SSC(C)(C)[C@H](C(=O)O)NC(=O)[C@H](Cc2ccccc2)NC1=O (H-Y[dPen][dAbu]F[dPen]-OH; disulfide 2-5) was tested. Which pIC50 [1] did it give?
**A.** 5.60

**Q.** And the pIC50 (Mu-type opioid receptor)?
**A.** < 4.30

**Q.** With CC1(C)SSC(C)(C)[C@@H](NC(=O)[C@@H](N)Cc2ccc(O)cc2)C(=O)N[C@H](CO)C(=O)N[C@@H](Cc2ccccc2)C(=O)N[C@H]1C(=O)O (H-Y[dPen][dS]F[dPen]-OH; disulfide 2-5) as the compound, how does the pIC50 [2] read?
**A.** 5.89

**Q.** And the pIC50 (Mu-type opioid receptor)?
**A.** < 4.30
